Source: publication PMC3026871 (Cancer chemotherapy and pharmacology, 2010)

Key:
[1] = Plasma pharmacokinetics in patients; conditions: for concentration at 6 h: Cmin, 6 hours after the second dose
[2] = ref Data on file, Millennium, cited from earlier work
[3] = test system: patients with advanced solid tumors; experiment: Phase 1 safety: drug-related adverse events; assay type: in vivo
[4] = test system: patients with advanced solid tumors; experiment: Clinical response; assay type: in vivo, human; conditions: RECIST
[5] = test system: human tumor xenografts; conditions: cited from earlier work
[6] = ref Data on file, Millennium; cited from earlier work
[7] = test system: alpha-1 subunit of the GABA-A receptor; conditions: ref Data on file, Millennium; cited from earlier work
[8] = human, plasma, oral, 60 mg, Mean (SD), QID/M-7D 60 mg, Day 7, Dose 2, steady state, n=6
[9] = human, plasma, oral, 60 mg, Mean (SD), QID/M-14D 60 mg, Day 14, Dose 2, steady state, n=3
[10] = human, plasma, oral, 60 mg, QID/M-21D 60 mg, Day 21, Dose 2, steady state, individual data, n=1
[11] = human, plasma, oral, 70 mg, Mean (SD), QID/M-7D 70 mg, Day 7, Dose 2, steady state, n=3
[12] = human, plasma, oral, 80 mg, Mean (SD), QID/M-7D 80 mg, Day 7, Dose 2, steady state, n=3

## O=C(O)c1ccc(Nc2ncc3c(n2)-c2ccc(Cl)cc2C(c2c(F)cccc2F)=NC3)cc1 [MLN8054]
[1]; human, plasma, oral, 60 mg, AUC0–24, QID/M-21D 60 mg, Day 21, Dose 2, steady state, individual data, n=1
  AUC(0-t): 7.03 µM·h
[1]; [8]
  Cmax: 1950 nM
  concentration at 6 h: 1090 nM
[1]; [9]
  Cmax: 2640 nM
  concentration at 6 h: 2070 nM
[1]; [10]
  Cmax: 1500 nM
  concentration at 6 h: 945 nM
[1]; human, plasma, oral, 60 mg, Tmax, Mean (SD), QID/M-7D 60 mg, Day 7, Dose 2, steady state, n=6
  Tmax: 1.3 h
[1]; human, plasma, oral, 60 mg, Tmax, Mean (SD), QID/M-14D 60 mg, Day 14, Dose 2, steady state, n=3
  Tmax: 2.3 h
[1]; human, plasma, oral, 60 mg, Tmax, QID/M-21D 60 mg, Day 21, Dose 2, steady state, individual data, n=1
  Tmax: 1 h
[1]; human, plasma, oral, 70 mg, AUC0–24, Mean (SD), QID/M-7D 70 mg, Day 7, Dose 2, steady state, n=3
  AUC(0-t): 15.2 µM·h
[1]; [11]
  Cmax: 3280 nM
  concentration at 6 h: 1950 nM
[1]; human, plasma, oral, 70 mg, Tmax, Mean (SD), QID/M-7D 70 mg, Day 7, Dose 2, steady state, n=3
  Tmax: 1.5 h
[1]; human, plasma, oral, 70 mg, mean plasma MLN8054 concentration maintained over the course of treatment, QID/M-7D 70 mg cohort
  concentration at 7 days: 2000 nM
[1]; human, plasma, oral, 80 mg, AUC0–24, Mean (SD), QID/M-7D 80 mg, Day 7, Dose 2, steady state, n=3
  AUC(0-t): 10.1 µM·h
[1]; [12]
  Cmax: 2130 nM
  concentration at 6 h: 1670 nM
[1]; human, plasma, oral, 80 mg, Tmax, Mean (SD), QID/M-7D 80 mg, Day 7, Dose 2, steady state, n=3
  Tmax: 1 h
[1]; human, plasma, po
  half-life: 1800 to 2400 min
[1]; human, plasma, po, Tmax (range across cohorts), patients, across cohorts
  Tmax: 1 to 4 h
[1]; of the 48 patients with sufficient data to estimate pharmacokinetic parameters
  patients with trough MLN8054 concentrations >2000 nM: 7 patients
[2]; human liver S9 fractions
  major phase 1 biotransformation pathway: Hydroxylation of the azepine moiety
  predominant mechanism of biotransformation: Glucuronidation of the carboxylate moiety of MLN8054 to an acyl glucuronide
[2]
  enzymes mediating biotransformation: Glucuronidation was mediated by UGT1 and UGT2 and hydroxylation by CYP1A2, 2C9, 2C19, 2D6, and 3A4
[3]; human, in vivo
  Any drug-related adverse event, Any Grade: 55 (90)
  Any drug-related adverse event, Grade 3: 13 (21)
  Drug-related Abnormal coordination, Any Grade: 5 (8)
  Drug-related Abnormal coordination, Grade 3: 1 (2)
  Drug-related Anorexia, Any Grade: 8 (13)
  Drug-related Anorexia, Grade 3: 0 (0)
  Drug-related Asthenia, Any Grade: 6 (10)
  Drug-related Asthenia, Grade 3: 1 (2)
  Drug-related Confusion, Any Grade: 11 (18)
  Drug-related Confusion, Grade 3: 4 (7)
  Drug-related Dizziness, Any Grade: 7 (11)
  Drug-related Dizziness, Grade 3: 1 (2)
  Drug-related Fatigue, Any Grade: 15 (25)
  Drug-related Fatigue, Grade 3: 1 (2)
  Drug-related Hallucination, Any Grade: 1 (2)
  Drug-related Hallucination, Grade 3: 1 (2)
  Drug-related Hyperbilirubinemia, Any Grade: 3 (5)
  Drug-related Hyperbilirubinemia, Grade 3: 1 (2)
  Drug-related Hyperglycemia, Any Grade: 5 (8)
  Drug-related Hyperglycemia, Grade 3: 1 (2)
  Drug-related Increased blood alkaline phosphatase, Any Grade: 4 (7)
  Drug-related Increased blood alkaline phosphatase, Grade 3: 1 (2)
  Drug-related Muscular weakness, Any Grade: 5 (8)
  Drug-related Muscular weakness, Grade 3: 1 (2)
  Drug-related Nausea, Any Grade: 10 (16)
  Drug-related Nausea, Grade 3: 0 (0)
  Drug-related Peripheral motor neuropathy, Any Grade: 1 (2)
  Drug-related Peripheral motor neuropathy, Grade 3: 1 (2)
  Drug-related Somnolence, Any Grade: 47 (77)
  Drug-related Somnolence, Grade 3: 11(18)
  Drug-related Vomiting, Any Grade: 6 (10)
  Drug-related Vomiting, Grade 3: 0 (0)
  drug-related grade 4 or 5 AE: no patient had a drug-related grade 4 or 5 AE
  grade ≥ 3 mucositis or myelosuppression: No dose studied was associated with grade ≥ 3 mucositis or myelosuppression
[3]; nine patients, none of the deaths considered drug-related
  patients who died within 21 days of the last dose: 15%
[4]; 3 patients
  patients with stable disease for greater than 6 cycles: 5%
[4]; 5–80 mg per day for 7, 14 or 21 days
  complete or partial responses: No complete or partial responses were seen
[4]; nine patients, all cohorts
  patients with stable disease for at least 4 cycles: 15%
[5]
  antitumor activity in xenograft models: antitumor activity in human tumor xenografts including colon, prostate, and lung cancer models
[5]; maintained for 8–12 hours per day, human tumor xenografts grown in mice
  plasma concentration whose maintenance is required for efficacy: ~ 2000 nM
[6]
  dose-limiting toxicities (DLTs) in preclinical toxicology studies: myelosuppression and gastrointestinal toxicity
[7]
  binding to the alpha-1 subunit of the GABA-A receptor: high-affinity binding
